Drawing on US8846951B2 (AbbVie Inc., priority 2009, dated 2014), this text covers EC50, Emax and Ki for 17 compounds.

Read-outs that look alike come from different tables or passages of the source. Some results are limits rather than exact numbers.

The target of assay [1] is T1, 5HT2C receptors (Homo sapiens, UniProt P28335).
T1 sequence (P28335 33-458): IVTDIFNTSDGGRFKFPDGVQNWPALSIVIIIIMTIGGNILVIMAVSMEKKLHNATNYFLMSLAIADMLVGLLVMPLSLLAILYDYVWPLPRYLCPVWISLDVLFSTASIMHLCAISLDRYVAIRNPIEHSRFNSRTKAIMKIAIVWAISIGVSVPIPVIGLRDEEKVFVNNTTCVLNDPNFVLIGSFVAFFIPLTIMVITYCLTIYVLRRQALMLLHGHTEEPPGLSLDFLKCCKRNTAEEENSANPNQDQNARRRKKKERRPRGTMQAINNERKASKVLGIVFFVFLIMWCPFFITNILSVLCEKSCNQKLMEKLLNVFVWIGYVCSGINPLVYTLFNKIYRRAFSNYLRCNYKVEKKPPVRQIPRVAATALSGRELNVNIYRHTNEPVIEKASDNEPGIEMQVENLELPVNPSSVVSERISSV
Put plainly: Human 5-HT2C functional assay in 1321N1 cells (intracellular calcium, FLIPR). The class given is cell-based. Further details: expressed in transfected cells; host or cells: 1321N1 cells; call rule not given here. Conditions: 5-HT2c agonist activity, maximum calcium response. Here is the method:
(ii) Human 5-HT2C Functional Assay in 1321N1 Cells
Functional activity was determined by testing the effect of the compounds on intracellular calcium levels in 1321N1 cells stably transfected with the human 5-HT2C receptor. Cells were seeded into 96-well plates at 50,000 cells/well and grown overnight in tissue culture medium (DMEM with Glutamax I (Invitrogen), containing 10% dFCS, 50 μg/mL Gentamicin, 400 μg/mL Geneticin) at 37° C. and 7% CO2. Growth medium was replaced by medium without dFCS for overnight incubation. Cells were loaded with a fluorescent calcium-sensitive dye in the presence of 1% probenicid according to the manufacturer's protocol (Fluo4 AM, Molecular Devices). Serial compound dilutions (final concentrations 10^−10 to 10^−5 M) were added to the cells either alone or in the presence of serotonin (10^−9 M) and the maximum calcium response was determined using a FLIPR instrument (Molecular Devices). Concentration-response curves were fitted using a four-parameter logistic equation (GraphPad Prism). The concentration at which the compound exerts half its maximal effect is named the ‘effective concentration 50’ or ‘EC50’ and is listed in Table 2.
Background: A change in cytosolic calcium serves as a functional read-out for many receptors and channels.

Assay [2] has as its target T1, 5HT2C receptors. Put plainly: Human 5-HT2C functional high throughput screening assay in CHO-K1 cells (calcium flux). The class given is cell-based. Further details: expressed in transfected cells; host or cells: CHO-K1 cells. Conditions: for EC50: CHO-K1 cells, calcium flux; for Emax: 5-HT2C, maximum functional response as percentage relative to the effect of serotonin. An outline of the steps:
(§1)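 Calcium flux in CHO-K1 cells overexpressing each receptor, using Ca4 dye with probenecid and FLIPR detection. Top concentration was 10 μM, diluted 1:10 across 6 points, and efficacy was scaled to serotonin.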

Assay [3] has as its target T2, 5HT2B receptors (Homo sapiens, UniProt P41595).
T2 construct: expressed in transfected cells; host or cells: CHO-K1 cells
Nature of the assay: Human 5-HT2B functional high throughput screening assay in CHO-K1 cells (calcium flux). The format is cell-based. Conditions: for EC50: CHO-K1 cells, calcium flux. In short, it runs like this: as §1

In assay [4] the target is T3, human serotonin 5-HT2c receptor (Homo sapiens, UniProt P28335).
T3 construct: expressed in transfected cells; host or cells: CHO cells (membrane homogenates)
T3 sequence (P28335 33-458): T1 sequence (P28335 33-458)
Put plainly: Human 5-HT2C receptor radioligand binding assay (agonist site, [125I]DOI). Conditions: 5-HT2c agonist site; transfected CHO cell membranes; 0.2 nM [125I](±)DOI. Here is the method: (i) Human 5-HT2C Receptor Radioligand Binding Assay
Affinity of compounds for the agonist site of the […], receptor in transfected CHO cells was determined in a radioligand binding assay essentially as described by Bryant, H. U., et al., Life Sciences (1996) 59(15), 1259-1268.

[5] abbreviates: 5-HT2C agonist activity, read-out: EC50.
Where [6] appears, read: 5-HT2B agonist activity, read-out: EC50.
[7] abbreviates: 5-HT2B, maximum functional response as percentage relative to the effect of serotonin.

T2 sequence (P41595 whole entry): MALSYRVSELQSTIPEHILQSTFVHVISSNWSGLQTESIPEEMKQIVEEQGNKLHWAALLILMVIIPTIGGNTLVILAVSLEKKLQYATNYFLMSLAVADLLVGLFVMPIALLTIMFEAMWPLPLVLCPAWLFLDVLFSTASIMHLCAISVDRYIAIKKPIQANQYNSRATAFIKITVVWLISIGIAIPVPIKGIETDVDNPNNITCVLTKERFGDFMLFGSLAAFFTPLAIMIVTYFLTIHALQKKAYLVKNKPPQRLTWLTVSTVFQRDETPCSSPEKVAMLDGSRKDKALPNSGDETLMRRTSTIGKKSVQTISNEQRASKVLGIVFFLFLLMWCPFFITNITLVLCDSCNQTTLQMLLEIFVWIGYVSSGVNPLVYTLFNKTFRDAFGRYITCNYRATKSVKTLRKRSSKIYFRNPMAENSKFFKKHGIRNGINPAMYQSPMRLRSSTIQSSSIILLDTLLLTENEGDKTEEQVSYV

A word on the EC50: it is the concentration at which the effect is half-maximal. In general, Emax refers to the maximal effect, on the per cent scale that the assay sets. By Ki is commonly meant the dissociation constant of the complex between target and ligand, obtained from inhibition or displacement. For the compound `COc1cccc(CN2C[C@H]3CNC(=O)c4ccccc4[C@@H]3C2)c1` (relative stereo) [Example 28, Trans-2-(3-methoxybenzyl)-1,2,3,3a,4,5-hexahydrobenzo[c]pyrrolo[3,4-e]azepin-6(10bH)-one], the results for the concentration giving a half-maximal response (EC50) in assay [1], in assay [2] (setting [5]) and in assay [3] (setting [6]) were 3.95 nM, 1 nM and 70 nM, respectively. Further, the maximal response (Emax) in assay [2] (CHO-K1, read-out: Emax) was over 120%; in assay [3] (CHO-K1, 5-HT2B, maximum functional response as percentage relative to the effect of serotonin, read-out: Emax), 55%. In assay [4], affinity was put at a Ki of 14 nM.
With `O=C1NC[C@@H]2CNC[C@H]2c2c(Cl)cccc21` (relative stereo) [Example 49], in assay [1], the EC50 was 48.3 nM. Besides, the Ki in assay [4] came out at 170 nM.
For `O=C1NC[C@@H]2CN(Cc3ccccc3)C[C@H]2c2cc(Cl)ccc21` (relative stereo) [Example 51, Trans-2-benzyl-9-chloro-1,2,3,3a,4,5-hexahydrobenzo[e]pyrrolo[3,4-c]azepin-6(10bH)-one], in that order: 84 nM and 110 nM.
For `O=C1NC[C@@H]2CNC[C@H]2c2cc(Cl)ccc21` (relative stereo) [Example 52, Trans-9-chloro-1,2,3,3a,4,5-hexahydrobenzo[e]pyrrolo[3,4-c]azepin-6(10bH)-one], in that order: 158 nM and 860 nM.
As for `O=C1NC[C@@H]2CN(Cc3ccccc3)C[C@H]2c2ccc(F)cc21` (relative stereo) [Example 55, Trans-2-benzyl-8-fluoro-1,2,3,3a,4,5-hexahydrobenzo[e]pyrrolo[3,4-c]azepin-6(10bH)-one], the EC50 in assay [1] is 10.6 nM; in assay [2] (EC50, 5-HT2C agonist activity) it was 40 nM; in assay [3] (EC50, 5-HT2B agonist activity), over 10000 nM. Further, the Emax in assay [2] (CHO-K1) is 120%; in assay [3] (setting [7]), “inactive”. Further, the Ki in assay [4] was found to be 9.1 nM.
As to `O=C1NC[C@@H]2CN(Cc3ccccc3)C[C@H]2c2cc(Cl)c(Cl)cc21` (relative stereo) [Example 56, Trans-2-benzyl-8,9-dichloro-1,2,3,3a,4,5-hexahydrobenzo[c]pyrrolo[3,4-e]azepin-6(10bH)-one], the concentration for a half-maximal effect (EC50) in assay [1] stood at 15.3 nM. Also, the Ki in assay [4] was determined as 70 nM.
Take `O=C1NC[C@@H]2CNC[C@H]2c2ccc(F)cc21` (relative stereo) [Example 57, Trans-8-fluoro-1,2,3,3a,4,5-hexahydrobenzo[c]pyrrolo[3,4-e]azepin-6(10bH)-one]: the EC50 in assay [1] was 7.67 nM; in assay [2] (EC50, 5-HT2C agonist activity) it was 6 nM; in assay [3] (EC50, 5-HT2B agonist activity), 700 nM. For the same compound, the Emax was 120% in assay [2] (CHO-K1) and 100% in assay [3] (CHO-K1). For the same compound, the inhibition constant (Ki) in assay [4] was found to be 26 nM.
Consider `O=C1NC[C@@H]2CN(Cc3ccccc3)C[C@H]2c2cccc(F)c21` (relative stereo) [Example 58, Trans-2-benzyl-7-fluoro-1,2,3,3a,4,5-hexahydrobenzo[e]pyrrolo[3,4-c]azepin-6(10bH)-one], for which the EC50 in assay [1] is 29 nM; in assay [2] (setting [5]), 30 nM; in assay [3] (setting [6]), over 10000 nM. For the same compound, the maximal effect (Emax) was 110% in assay [2] (CHO-K1, read-out: Emax) and “inactive” in assay [3] (setting [7]). For the same compound, the affinity in assay [4], expressed as Ki, was 31 nM.
Take `O=C1NC[C@@H]2CN(Cc3ccccc3)C[C@@H]2c2cccc(F)c21` (relative stereo) [Example 59, Cis-2-benzyl-7-fluoro-1,2,3,3a,4,5-hexahydrobenzo[c]pyrrolo[3,4-e]azepin-6(10bH)-one]: the half-maximal effective concentration (EC50) in assay [1] was 115 nM; in assay [2] (setting [5]), 100 nM; in assay [3] (setting [6]), over 10000 nM. Also, the Emax was 120% in assay [2] (CHO-K1, read-out: Emax) and “inactive” in assay [3] (setting [7]). For the same compound, the inhibition constant Ki in assay [4] was 210 nM.
Regarding `O=C1NC[C@@H]2CN(Cc3ccccc3)C[C@H]2c2c(F)cccc21` (relative stereo) [Example 65, Trans-2-benzyl-10-fluoro-1,2,3,3a,4,5-hexahydrobenzo[c]pyrrolo[3,4-e]azepin-6(10bH)-one], the concentration for a half-maximal effect (EC50) is 20.2 nM in assay [1], 20 nM in assay [2] (setting [5]) and over 10000 nM in assay [3] (setting [6]). Besides, the Emax in assay [2] (CHO-K1, read-out: Emax) is 120%; in assay [3] (setting [7]) it was “inactive”. The Ki in assay [4] is 53 nM.
Take `O=C1NC[C@@H]2CN(Cc3ccccc3)C[C@@H]2c2c(F)cccc21` (relative stereo) [Example 66, Cis-2-benzyl-10-fluoro-1,2,3,3a,4,5-hexahydrobenzo[c]pyrrolo[3,4-e]azepin-6(10bH)-one]: the EC50 in assay [1] amounted to 179 nM. In addition, the inhibitory constant (Ki) in assay [4] worked out at 290 nM.
`COC(=O)c1cccc(CN2C[C@H]3CNC(=O)c4ccccc4[C@@H]3C2)c1` (relative stereo) [Example 68, Trans-methyl-3-((6-oxo-1,3a,4,5,6,10b-hexahydrobenzo[e]pyrrolo[3,4-c]azepin-2(3H)-yl)methyl)benzoate]: the 50% effective concentration (EC50) in assay [1] is 3.97 nM; in assay [2] (setting [5]), 7 nM; in assay [3] (setting [6]), over 10000 nM. Besides, the Emax in assay [2] (CHO-K1, read-out: Emax) is 120%; in assay [3] (setting [7]), “inactive”. Affinity in assay [4] was put at a Ki of 10 nM.
On to `CN1C[C@H]2CNC(=O)c3ccccc3[C@@H]2C1` (relative stereo) [Example 69, Trans-2-methyl-1,2,3,3a,4,5-hexahydrobenzo[c]pyrrolo[3,4-e]azepin-6(10bH)-one], for which the EC50 in assay [1] turned out to be 8.78 nM; in assay [2] (EC50, 5-HT2C agonist activity), 9 nM; in assay [3] (EC50, 5-HT2B agonist activity) it was 500 nM. Besides, the results for the Emax in assay [2] (CHO-K1) and in assay [3] (CHO-K1) were 120% and 70%, respectively. In assay [4], the inhibition constant Ki was determined as 48 nM.
Turning to `O=C1NC[C@@H]2CN(Cc3cc(Cl)ccc3F)C[C@H]2c2ccccc21` (relative stereo) [Example 70, Trans-2-(5-chloro-2-fluorobenzyl)-1,2,3,3a,4,5-hexahydrobenzo[e]pyrrolo[3,4-c]azepin-6(10bH)-one], in assay [1], the EC50 was determined as 1.76 nM. Also, the affinity in assay [4], expressed as Ki, was 36 nM.
As for `O=C1NC[C@@H]2CNC[C@H]2c2cccc(F)c21` (single isomer, unassigned) [Example 60, Trans-7-fluoro-1,2,3,3a,4,5-hexahydrobenzo[c]pyrrolo[3,4-e]azepin-6(10bH)-one], the EC50 in assay [1] is 7.65 nM; in assay [2] (EC50, 5-HT2C agonist activity) it was 7 nM; in assay [3] (EC50, 5-HT2B agonist activity), 900 nM. For the same compound, the Emax was 120% in assay [2] (CHO-K1) and 80% in assay [3] (CHO-K1). For the same compound, the inhibition constant Ki in assay [4] was determined as 44 nM.
Turning to `O=C1NC[C@H]2CN(Cc3ccccc3)C[C@@H]2c2ccc(F)cc21` [Example 61, (3aS,10bS)-2-Benzyl-8-fluoro-1,2,3,3a,4,5-hexahydrobenzo[e]pyrrolo[3,4-e]azepin-6(10bH)-one], the EC50 in assay [1] stood at 3.2 nM; in assay [2] (EC50, 5-HT2C agonist activity), 5.82 nM; in assay [3] (EC50, 5-HT2B agonist activity) it was 200 nM. The figures for the maximal response (Emax) in assay [2] (CHO-K1) and in assay [3] (CHO-K1) were over 120% and 10%, respectively. In assay [4], this compound gave a Ki of 6.4 nM.
As for “(3aR,10bS)-1,2,3,3a,4,5-Hexahydrobenzo[e]pyrrolo[3,4-c]azepin-6(10bH)-one [Example 47]”, the concentration giving a half-maximal response (EC50) in assay [1] worked out at 0.575 nM; in assay [2] (setting [5]), 0.3 nM; in assay [3] (setting [6]) it was 20 nM. Besides, the Emax in assay [2] is over 120%; in assay [3] (setting [7]), 100%. The same compound displayed a Ki in assay [4] of 6.1 nM.
